# Experimental data reported in patent US7220772B2, “Pyrazole derivatives” (Pfizer, Inc., priority 2003, dated 2007).
# Columns and labels:
# [1] = target: T1, HIV-1 reverse transcriptase (Human immunodeficiency virus type 1 group M subtype B, UniProt P04585); assay: Inhibition of HIV-1 Reverse Transcriptase Enzyme; format: biochemical; settings: purified recombinant HIV-1 RT expressed in Escherichia Coli; [3H]-SPA or [3H]-flashplate enzyme assay; 5% final DMSO
# T1 construct: purified recombinant HIV-1 reverse transcriptase (RT, EC, 2.7.7.49) obtained by expression in Escherichia Coli; made in house; host or cells: Escherichia coli
# Description: The activity of the compounds of the invention as reverse transcriptase inhibitors may be measured using the following assay.
# Inhibition of HIV-1 Reverse Transcriptase Enzyme
# Using purified recombinant HIV-1 reverse transcriptase (RT, EC, 2.7.7.49) obtained by expression in Escherichia Coli, a 96-well plate assay system is established for assaying a large number of samples using either the Poly(rA)-oligo(dT) Reverse Transcriptase [3H]-SPA enzyme assay system (Amersham NK9020) or the [3H]-flashplate enzyme assay system (NEN-SMP 103) and following the manufacturer's recommendations. The compounds are dissolved in 100% DMSO and diluted with the appropriate buffer to a 5% final DMSO concentration. The inhibitory activity is expressed in percent inhibition relative to DMSO control.
Structure (SMILES),IC50 [1],melting point
"CCc1n[nH]c(CCOc2ccc(SC)cc2)c1Oc1cc(C#N)cc(C#N)c1 [Example 1, 5-[(3-Ethyl-5-{2-[4-(methylsulfanyl)phenoxy]ethyl}-1H-pyrazol-4-yl)oxy]isophthalonitrile]",2 nM,–
"CCc1n[nH]c(CCOc2ccc(S(C)(=O)=O)cc2)c1Oc1cc(C#N)cc(C#N)c1 [Example 3, 5-[(3-Ethyl-5-{2-[4-(methylsulfonyl)phenoxy]ethyl}-1H-pyrazol-4-yl)oxy]isophthalonitrile]",45 nM,88 to 90 °C
